Assay results as given in ChEMBL document CHEMBL1208782, “Synthesis and pharmacological validation of a novel series of non-steroidal FXR agonists” (Bioorg Med Chem Lett, 2010).

Key:
Assay type in all cases: functional, cell-based
[1] = target: T1, Oxysterols receptor LXR-alpha (Homo sapiens) (UniProt Q13133); test: Agonist activity at LXRalpha-LBD expressed in HEK293 cells assessed as Gal4-DBD interaction by cellular mammalian one hybrid assay relative to T0901317
T1 sequence (whole entry): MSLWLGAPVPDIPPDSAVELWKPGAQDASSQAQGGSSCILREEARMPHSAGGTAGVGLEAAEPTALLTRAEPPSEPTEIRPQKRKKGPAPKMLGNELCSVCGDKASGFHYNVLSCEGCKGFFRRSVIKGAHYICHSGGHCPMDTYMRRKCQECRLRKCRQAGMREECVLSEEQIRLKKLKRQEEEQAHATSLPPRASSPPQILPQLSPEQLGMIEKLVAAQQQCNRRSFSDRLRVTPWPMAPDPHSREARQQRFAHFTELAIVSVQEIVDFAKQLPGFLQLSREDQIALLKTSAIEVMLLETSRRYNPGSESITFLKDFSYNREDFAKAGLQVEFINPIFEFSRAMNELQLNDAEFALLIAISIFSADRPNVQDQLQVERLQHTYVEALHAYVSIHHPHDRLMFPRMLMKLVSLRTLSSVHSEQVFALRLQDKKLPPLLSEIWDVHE

Glucocorticoid receptor = target: T2, Glucocorticoid receptor (Homo sapiens, UniProt P04150); test: Agonist activity at GR-LBD expressed in HEK293 cells assessed as Gal4-DBD interaction by cellular mammalian one hybrid assay
T2 sequence (P04150 whole entry): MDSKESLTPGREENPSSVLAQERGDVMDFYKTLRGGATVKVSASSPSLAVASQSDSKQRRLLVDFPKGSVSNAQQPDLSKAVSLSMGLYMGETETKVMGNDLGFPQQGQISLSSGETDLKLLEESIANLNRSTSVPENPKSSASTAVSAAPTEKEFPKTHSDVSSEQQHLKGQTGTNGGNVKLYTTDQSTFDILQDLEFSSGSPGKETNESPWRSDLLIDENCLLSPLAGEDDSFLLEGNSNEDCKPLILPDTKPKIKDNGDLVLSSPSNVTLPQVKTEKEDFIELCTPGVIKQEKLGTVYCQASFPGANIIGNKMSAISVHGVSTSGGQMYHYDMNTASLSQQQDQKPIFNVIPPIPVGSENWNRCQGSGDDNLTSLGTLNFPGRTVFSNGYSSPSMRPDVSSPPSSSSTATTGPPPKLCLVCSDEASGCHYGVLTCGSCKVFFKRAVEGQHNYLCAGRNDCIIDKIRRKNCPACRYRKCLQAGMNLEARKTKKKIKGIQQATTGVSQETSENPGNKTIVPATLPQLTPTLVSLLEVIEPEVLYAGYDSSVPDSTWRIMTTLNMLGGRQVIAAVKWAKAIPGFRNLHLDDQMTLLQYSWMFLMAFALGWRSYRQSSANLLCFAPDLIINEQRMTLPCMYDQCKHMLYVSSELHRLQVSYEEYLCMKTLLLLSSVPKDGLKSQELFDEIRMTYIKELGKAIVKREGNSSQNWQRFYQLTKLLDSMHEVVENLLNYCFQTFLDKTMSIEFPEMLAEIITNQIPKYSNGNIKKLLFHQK

[2] = target: T3, CAR (nuclear receptor subfamily 1 group I member 3) (Homo sapiens, UniProt Q14994); test: Agonist activity at CAR-LBD expressed in HEK293 cells assessed as Gal4-DBD interaction by cellular mammalian one hybrid assay relative to androstane; settings: HEK293 cells expressing CAR-LBD, read-out: Efficacy
T3 sequence (Q14994 whole entry): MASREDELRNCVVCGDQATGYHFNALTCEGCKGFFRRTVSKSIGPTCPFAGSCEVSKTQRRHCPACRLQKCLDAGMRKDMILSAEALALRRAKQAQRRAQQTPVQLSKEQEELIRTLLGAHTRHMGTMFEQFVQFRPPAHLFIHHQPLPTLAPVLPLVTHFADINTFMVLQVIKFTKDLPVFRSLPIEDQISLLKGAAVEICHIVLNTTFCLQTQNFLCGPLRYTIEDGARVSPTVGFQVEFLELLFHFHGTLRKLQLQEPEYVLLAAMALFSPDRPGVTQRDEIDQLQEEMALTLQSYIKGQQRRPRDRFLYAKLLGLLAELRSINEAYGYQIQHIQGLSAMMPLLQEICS

Bile acid receptor = target: T4, Bile acid receptor (Homo sapiens, UniProt Q96RI1); test: Agonist activity at human […] FXR LBD expressed in HEK293 cells coexpressing GAL4-DNA bindig domain and pFRluc by mammalian one-hybrid assay; settings: read-out: EC50
T4 sequence (Q96RI1 whole entry): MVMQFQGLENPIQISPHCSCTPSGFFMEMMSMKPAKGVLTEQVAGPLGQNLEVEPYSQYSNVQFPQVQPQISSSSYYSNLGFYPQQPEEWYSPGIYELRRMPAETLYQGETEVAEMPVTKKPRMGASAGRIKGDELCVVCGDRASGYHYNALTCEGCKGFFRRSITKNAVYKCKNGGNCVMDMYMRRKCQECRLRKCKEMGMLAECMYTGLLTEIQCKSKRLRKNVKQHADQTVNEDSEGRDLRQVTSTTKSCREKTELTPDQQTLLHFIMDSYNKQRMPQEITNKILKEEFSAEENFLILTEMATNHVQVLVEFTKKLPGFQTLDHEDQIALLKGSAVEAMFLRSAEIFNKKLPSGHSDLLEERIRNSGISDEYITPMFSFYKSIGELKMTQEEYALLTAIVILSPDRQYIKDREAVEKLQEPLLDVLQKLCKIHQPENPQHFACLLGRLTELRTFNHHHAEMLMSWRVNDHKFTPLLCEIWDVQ

Q: Which Efficacy [1] does the source give for `CN(Cc1cccc(C(=O)O)c1)c1ccc(OCc2c(-c3c(Cl)cccc3Cl)noc2C2CC2)nc1C(F)(F)F` here?
A: Its Efficacy is 0%.

Q: What about the EC50 (Glucocorticoid receptor) of the same compound?
A: The EC50 was > 10000 nM.

Q: And the Emax [2]?
A: The Emax was 0%.

Q: What about the EC50 (Bile acid receptor) of the same compound?
A: The EC50 was 9 nM.

Q: Which results are given for `CN(Cc1ccc(C(=O)O)cc1)c1ccc(OCc2c(-c3c(Cl)cccc3Cl)noc2C2CC2)nc1C(F)(F)F`?
A: Efficacy [1]: 0%; EC50 (Glucocorticoid receptor): > 10000 nM; Emax [2]: 0%; EC50 (Bile acid receptor): 30 nM

Q: `CC(C)c1onc(-c2c(Cl)cccc2Cl)c1COc1ccc(N(C)Cc2ccc(C(=O)O)cc2)c(C(F)(F)F)n1` was tested. Which Efficacy [1] did it give?
A: The Efficacy was 0%.

Q: What about the EC50 (Glucocorticoid receptor) of the same compound?
A: The EC50 was > 10000 nM.

Q: What about the Emax [2] of the same compound?
A: Its Emax is 0%.

Q: What about the EC50 (Bile acid receptor) of the same compound?
A: Its EC50 is 90 nM.
